Like-named read-outs stand apart in the source and are kept apart here. Marks after values point to notes of the source that are not given here.
What was measured:
Histamine, H1 = Histamine, H1 (Homo sapiens, UniProt P35367); assay: H1 binding assay by displacement of known standards
Experimental: (§1) The following binding assays were performed on the Series 11 compounds described above by displacement of known standards from the H1, M1, M2, and M3 receptors, wherein H1 is a histamine receptor, and M1, M2, and M3 are muscarinic receptors.
The binding studies against the histamine receptor, H1, indicate binding affinity, and therefore the results of the binding assays are an indication of the activity of the compound. […]
The following binding assays were performed on additional compounds described above by displacement of known standards from the H1, M1, M2, and M3 receptors, wherein H1 is a histamine receptor, and M1, M2, and M3 are muscarinic receptors.
The binding assays for H1 was the same as described in Example 10 and the M1, M2, and M3 binding assays are the same as those described in Example 10 for human recombinant expressed cells.

M1 muscarinic receptor = target: T1, M1 muscarinic receptor (Homo sapiens, UniProt P11229); assay: M1 binding assay by displacement of known standards (Example 11)
T1 sequence (P11229 1-460): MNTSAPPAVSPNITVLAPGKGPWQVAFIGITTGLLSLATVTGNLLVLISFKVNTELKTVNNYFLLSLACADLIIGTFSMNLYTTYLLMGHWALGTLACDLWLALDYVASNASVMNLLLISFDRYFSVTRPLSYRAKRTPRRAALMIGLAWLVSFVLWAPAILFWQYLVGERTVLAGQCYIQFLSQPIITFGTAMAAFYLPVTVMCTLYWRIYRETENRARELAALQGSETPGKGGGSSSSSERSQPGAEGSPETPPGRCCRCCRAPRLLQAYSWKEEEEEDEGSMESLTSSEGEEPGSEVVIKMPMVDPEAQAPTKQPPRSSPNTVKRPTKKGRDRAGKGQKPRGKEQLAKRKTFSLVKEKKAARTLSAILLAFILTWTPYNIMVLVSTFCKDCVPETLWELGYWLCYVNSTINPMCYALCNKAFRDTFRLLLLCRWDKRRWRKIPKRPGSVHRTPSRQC
Experimental: as §1
(§2) In addition, the binding studies against the muscarinic receptors indicate the extent to which the compounds bind the muscarinic receptors, responsible for anti-cholinergic activity of the compound. Binding to muscarinic receptors results in several undesired side effects of many known antihistamines, e.g., dry-mouth. A decrease in the binding of the compounds to the M1-M3 receptors, relative the binding of the compound to the H1 receptor, is an indication of the greater specificity of the compound for the histamine receptor over the muscarinic receptor.

M2 muscarinic receptor = target: T2, M2 muscarinic receptor (Homo sapiens, UniProt P08172); assay: M2 binding assay by displacement of known standards (Example 11)
T2 sequence (P08172 1-466): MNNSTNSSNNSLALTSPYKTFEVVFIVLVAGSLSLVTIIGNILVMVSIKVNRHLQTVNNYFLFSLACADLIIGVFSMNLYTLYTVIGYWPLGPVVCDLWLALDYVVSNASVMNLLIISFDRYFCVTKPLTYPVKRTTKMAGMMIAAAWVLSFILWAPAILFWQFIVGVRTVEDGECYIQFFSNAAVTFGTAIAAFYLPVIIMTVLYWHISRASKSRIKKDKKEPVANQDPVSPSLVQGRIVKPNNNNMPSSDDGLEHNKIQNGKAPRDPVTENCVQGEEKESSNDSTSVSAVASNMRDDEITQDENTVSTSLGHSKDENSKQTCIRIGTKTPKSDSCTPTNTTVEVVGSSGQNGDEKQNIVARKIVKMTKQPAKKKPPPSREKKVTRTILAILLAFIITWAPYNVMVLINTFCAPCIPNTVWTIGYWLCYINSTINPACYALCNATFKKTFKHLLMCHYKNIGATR
Experimental: as §1, §2

M3 muscarinic receptor = M3 muscarinic receptor (Homo sapiens, UniProt P20309); assay: M3 binding assay by displacement of known standards (Example 11)
Experimental: as §1, §2

muscarinic receptors = assay: Muscarinic receptor binding, M1, M2 and M3 taken together in the conclusions
Experimental: as §1, §2

[1] = in human blood; cited from earlier work
Histamine, H2 = Histamine, H2 (Homo sapiens, UniProt P25021); assay: Receptor selectivity binding assay comparison; details: 1.0E−6
[2] = target: T3, Muscarinic, M1 (Human Recombinant) (Homo sapiens, UniProt P11229); assay: Receptor selectivity binding assay comparison; details: 1.0E−6
T3 sequence (P11229 1-460): T1 sequence (P11229 1-460)

[3] = target: Norepinephrine Transporter (Homo sapiens, UniProt P23975); assay: Receptor selectivity binding assay comparison; details: 1.0E−6
HERG = HERG (Homo sapiens, UniProt Q12809)
Male Wistar rats = assay: Sleep-wakefulness, locomotor activity and body temperature monitoring (SCORE-2000), treatment at CT-18; details: 30 mg/kg PO, at CT-18
[4] = target: T4, Muscarinic, M2 (Human Recombinant) (Homo sapiens, UniProt P08172); assay: Receptor selectivity binding assay comparison; details: 1.0E−6
T4 sequence (P08172 1-466): T2 sequence (P08172 1-466)

Histamine, H1, sequence (P35367 whole entry): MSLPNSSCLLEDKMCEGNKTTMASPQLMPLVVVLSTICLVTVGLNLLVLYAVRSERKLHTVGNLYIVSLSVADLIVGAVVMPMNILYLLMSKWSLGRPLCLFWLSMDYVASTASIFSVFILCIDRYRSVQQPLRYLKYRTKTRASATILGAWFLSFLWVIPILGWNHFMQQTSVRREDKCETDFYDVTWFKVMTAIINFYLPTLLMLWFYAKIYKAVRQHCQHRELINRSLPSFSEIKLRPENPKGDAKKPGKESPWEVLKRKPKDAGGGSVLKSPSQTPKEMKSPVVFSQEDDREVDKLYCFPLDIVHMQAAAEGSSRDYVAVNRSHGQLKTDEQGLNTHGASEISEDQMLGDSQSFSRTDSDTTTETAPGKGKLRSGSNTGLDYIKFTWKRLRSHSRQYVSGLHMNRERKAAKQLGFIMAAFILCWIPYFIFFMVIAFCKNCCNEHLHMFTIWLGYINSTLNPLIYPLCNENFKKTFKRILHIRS
HERG, sequence (Q12809 whole entry): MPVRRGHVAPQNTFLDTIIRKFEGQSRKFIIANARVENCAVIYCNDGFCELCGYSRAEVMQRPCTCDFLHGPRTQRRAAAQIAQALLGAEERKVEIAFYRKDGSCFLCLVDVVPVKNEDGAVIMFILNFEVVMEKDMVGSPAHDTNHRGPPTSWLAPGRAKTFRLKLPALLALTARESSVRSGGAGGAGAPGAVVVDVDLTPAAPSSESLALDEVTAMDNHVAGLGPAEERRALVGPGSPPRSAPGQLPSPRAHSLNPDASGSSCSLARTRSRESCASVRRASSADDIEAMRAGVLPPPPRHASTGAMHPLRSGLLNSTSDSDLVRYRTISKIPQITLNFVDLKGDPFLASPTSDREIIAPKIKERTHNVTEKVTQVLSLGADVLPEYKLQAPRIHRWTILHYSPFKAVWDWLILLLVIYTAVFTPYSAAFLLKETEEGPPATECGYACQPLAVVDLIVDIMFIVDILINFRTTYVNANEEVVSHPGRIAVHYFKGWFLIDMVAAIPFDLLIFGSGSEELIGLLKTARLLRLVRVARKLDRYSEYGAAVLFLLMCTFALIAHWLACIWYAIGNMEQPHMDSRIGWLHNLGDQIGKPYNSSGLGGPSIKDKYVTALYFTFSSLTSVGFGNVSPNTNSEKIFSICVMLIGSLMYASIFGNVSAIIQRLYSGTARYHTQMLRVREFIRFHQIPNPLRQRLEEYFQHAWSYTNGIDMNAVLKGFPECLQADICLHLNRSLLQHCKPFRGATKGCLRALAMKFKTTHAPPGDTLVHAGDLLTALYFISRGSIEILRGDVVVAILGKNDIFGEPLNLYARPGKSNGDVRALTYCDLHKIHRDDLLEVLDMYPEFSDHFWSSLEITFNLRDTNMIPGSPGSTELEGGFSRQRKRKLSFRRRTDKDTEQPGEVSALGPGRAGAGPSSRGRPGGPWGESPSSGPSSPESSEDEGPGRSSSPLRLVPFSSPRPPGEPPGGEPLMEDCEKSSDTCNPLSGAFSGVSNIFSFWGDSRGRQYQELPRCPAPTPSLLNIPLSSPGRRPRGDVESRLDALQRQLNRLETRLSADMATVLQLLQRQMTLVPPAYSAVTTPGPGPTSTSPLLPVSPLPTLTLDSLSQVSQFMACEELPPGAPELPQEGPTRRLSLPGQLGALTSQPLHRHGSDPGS
Histamine, H2, sequence (P25021 whole entry): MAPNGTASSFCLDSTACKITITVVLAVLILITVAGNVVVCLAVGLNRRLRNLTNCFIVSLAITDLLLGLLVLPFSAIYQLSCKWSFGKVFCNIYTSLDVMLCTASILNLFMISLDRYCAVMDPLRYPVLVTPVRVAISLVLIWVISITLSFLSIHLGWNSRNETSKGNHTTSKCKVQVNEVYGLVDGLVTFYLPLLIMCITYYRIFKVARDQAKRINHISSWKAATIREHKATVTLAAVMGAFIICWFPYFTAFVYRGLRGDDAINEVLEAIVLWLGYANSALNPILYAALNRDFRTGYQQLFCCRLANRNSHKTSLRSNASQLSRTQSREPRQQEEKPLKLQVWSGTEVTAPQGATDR
M3 muscarinic receptor, sequence (P20309 whole entry): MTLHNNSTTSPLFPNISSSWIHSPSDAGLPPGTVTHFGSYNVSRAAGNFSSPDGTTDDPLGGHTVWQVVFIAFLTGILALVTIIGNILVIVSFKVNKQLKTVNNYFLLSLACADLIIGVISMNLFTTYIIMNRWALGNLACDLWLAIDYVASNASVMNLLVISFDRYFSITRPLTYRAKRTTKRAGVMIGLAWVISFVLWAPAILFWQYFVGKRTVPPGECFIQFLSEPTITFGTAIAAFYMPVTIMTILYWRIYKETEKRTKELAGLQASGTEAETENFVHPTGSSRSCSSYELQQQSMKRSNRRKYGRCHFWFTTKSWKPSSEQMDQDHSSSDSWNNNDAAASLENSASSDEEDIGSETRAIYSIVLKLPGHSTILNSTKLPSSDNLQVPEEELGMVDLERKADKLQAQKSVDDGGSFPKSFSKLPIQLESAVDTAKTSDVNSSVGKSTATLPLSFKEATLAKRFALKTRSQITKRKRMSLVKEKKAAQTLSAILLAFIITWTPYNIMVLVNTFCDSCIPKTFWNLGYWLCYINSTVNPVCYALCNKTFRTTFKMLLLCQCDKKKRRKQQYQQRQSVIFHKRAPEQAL
Norepinephrine Transporter, sequence (P23975 whole entry, species assumed): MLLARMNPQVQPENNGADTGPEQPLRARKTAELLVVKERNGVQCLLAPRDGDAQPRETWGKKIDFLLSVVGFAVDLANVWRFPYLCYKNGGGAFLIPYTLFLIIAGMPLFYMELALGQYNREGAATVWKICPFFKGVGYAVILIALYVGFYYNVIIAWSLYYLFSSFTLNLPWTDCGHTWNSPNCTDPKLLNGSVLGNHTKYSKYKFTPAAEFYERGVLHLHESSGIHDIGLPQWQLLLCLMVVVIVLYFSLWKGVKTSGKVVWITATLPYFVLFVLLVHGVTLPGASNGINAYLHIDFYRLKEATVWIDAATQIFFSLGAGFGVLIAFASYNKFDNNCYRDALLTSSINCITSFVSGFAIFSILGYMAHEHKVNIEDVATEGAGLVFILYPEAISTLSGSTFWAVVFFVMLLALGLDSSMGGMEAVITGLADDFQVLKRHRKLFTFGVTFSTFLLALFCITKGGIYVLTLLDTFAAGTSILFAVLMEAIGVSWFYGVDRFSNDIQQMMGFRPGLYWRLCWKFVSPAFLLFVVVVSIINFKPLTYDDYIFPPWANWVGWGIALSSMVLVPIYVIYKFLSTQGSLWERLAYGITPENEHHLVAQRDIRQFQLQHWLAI

## O=C(CCN1CCC(=C(c2ccccc2)c2ccccc2)CC1)O[C@H]1CCOC1 [Series 11g]
Histamine, H1
  IC50: 196 nM
  difference in binding affinity towards the H1 receptor between the enantiomeric compounds: do not result in a substantial difference
Histamine, H1; read-out: H1 Ki
  Ki: 86.1 nM
M1 muscarinic receptor
  IC50: 4680 nM
  Ki: 360 nM
M2 muscarinic receptor
  IC50: 5700 nM
  Ki: 2080 nM
M3 muscarinic receptor
  IC50: 5710 nM
  Ki: 1560 nM
Muscarinic receptors
  difference in binding affinity towards the muscarinic receptors between the enantiomeric compounds: do show a substantial difference

## Nc1ncnc2c1ncn2[C@@H]1O[C@H](CO)[C@@H](O)[C@H]1O [adenosine]
[1]
  half-life: < 1 s

## O=C(O)CCN1CCC(=C2c3ccccc3COc3ccccc32)CC1 [Series 8a]
Histamine, H1; read-out: Receptor Binding Data (Ki nM) H1
  Ki: 62.5 nM
Histamine, H2
  Percent Inhibition, Histamine, H2: 33.4%
[2]
  Percent Inhibition, Muscarinic, M1 (Human Recombinant): 3.3%
[3]
  Percent Inhibition, Norepinephrine Transporter: −3.9%
HERG
  Percent Inhibition, HERG: 4%
Male Wistar rats
  Average Bout-Length: 12.2 min
  Maximum Bout Length: 28.9 min
  NREM Accum.: 65.8 min
  NREM Peak: 75.5 %/hr
  Onset: 65 min

## CN(C)CCC=C1c2ccccc2COc2ccccc21 [Doxepin, reference compound]
Histamine, H2
  Percent Inhibition, Histamine, H2: 74.7%
[4]
  Percent Inhibition, Muscarinic, M2 (Human Recombinant): […]
HERG
  Percent Inhibition, HERG: 23%**
